{
  "source": "EPA's ToxValDB 9.5",
  "key": {"[1]": {"tested_on": "Rattus norvegicus", "details": "for LD50: acute; for LD50 / NOAEL / NOAEL (% diet): oral; for NOAEL (% diet): duration: 29 days"}, "[2]": {"tested_on": "Rattus norvegicus"}, "[3]": {"details": "short-term; duration: 28 days; oral; gavage; M; Sprague-Dawley; Deaths/5) + Body Weight Changes: decrease + Food Consumption: decrease + Urinalysis: Urine volume decrease, Uosm increase + Hematology: MCH …"}},
  "data": [
    {"smiles": "CCCCCCCCCCCCCCCCCCN(C)C", "note": "[N,N-Dimethyl-1-octadecanamine]", "values": [
      {"measurement": "LD50", "setting": "[1]; gavage", "result": 2120, "unit": "mg/kg"}
    ]},
    {"smiles": "O=S(=O)(c1ccc(Cl)cc1)c1ccc(Cl)cc1", "note": "[4,4'-Dichlorodiphenyl sulfone]", "values": [
      {"measurement": "NOEL", "setting": "[2]; chronic, duration: 14 weeks, oral, diet, M/F, Fischer 344, Body Weight Changes: decrease + Food Consumption: decrease + Hematology: Hgb decrease, Plt increase + Blood Chemistry: TP increase, BUN …", "result": "< 2.34", "unit": "mg/kg-day"},
      {"measurement": "NOAEL", "setting": "[2]; [3]", "result": "< 50", "unit": "mg/kg-day"},
      {"measurement": "NOEL", "setting": "[2]; [3]", "result": "< 50", "unit": "mg/kg-day"}
    ]},
    {"smiles": "[Cl-].[Cl-].[Ti+4].c1cc[cH-]c1.c1cc[cH-]c1", "note": "[Titanocene dichloride]", "values": [
      {"measurement": "NOEL", "setting": "[2]; subchronic, duration: 13 weeks, oral, gavage, M/F, Fischer 344, Deaths + Body Weight Changes: decrease + Absolute Organ Weight: Liver increase, Thymus decrease + Relative Organ Weight: kidney increase, …", "result": "< 8", "unit": "mg/kg-day"}
    ]},
    {"smiles": "O=C(O)CCC(=O)O", "note": "[Butanedioic acid]", "values": [
      {"measurement": "LD50", "setting": "[1]; gavage", "result": 2260, "unit": "mg/kg"},
      {"measurement": "LD50", "setting": "[1]; gavage, Fischer 344", "result": "> 8000", "unit": "mg/kg"},
      {"measurement": "LOAEL", "setting": "[1]; developmental, injection, intramuscular", "result": 500, "unit": "mg/kg-day"}
    ]},
    {"smiles": "O=C1Oc2cc3c(cc2=C1c1ccccc1)OC(=O)C=3c1ccc(OCC2CCCO2)cc1", "note": "(stereo not given)", "values": [
      {"measurement": "NOEL", "setting": "[2]; short-term, duration: 28 days, oral, gavage", "result": 1000, "unit": "mg/kg-day"}
    ]},
    {"smiles": "O=C(OCCOCCOC(=O)c1ccccc1)c1ccccc1", "note": "[Diethylene glycol dibenzoate]", "values": [
      {"measurement": "NOAEL", "setting": "[1]; developmental, duration: 38 weeks, diet, Sprague-Dawley", "result": 3300, "unit": "ppm"},
      {"measurement": "NOAEL", "setting": "[1]; reproduction developmental, duration: 38 weeks, diet, F, Sprague-Dawley", "result": 10000, "unit": "ppm"},
      {"measurement": "NOAEL", "setting": "[1]; reproduction developmental, duration: 38 weeks, diet, Sprague-Dawley, generation: F0", "result": 10000, "unit": "ppm"}
    ]},
    {"smiles": "CC1(C)S[C@@H]2[C@H](NC(=O)COc3ccccc3)C(=O)N2[C@H]1C(=O)[O-].[K+]", "note": "[Penicillin VK]", "values": [
      {"measurement": "NOEL", "setting": "[2]; subchronic, duration: 13 weeks, oral, gavage, M/F, Fischer 344, Clinical Observation: Diarrhea + Body Weight Changes: decrease + Histopathology: Stomach/glandular-Mucous cell metaplasia", "result": 370, "unit": "mg/kg-day"}
    ]},
    {"smiles": "C=C[Si](C)(C)O[Si](C)(C)C=C", "note": "[Divinyltetramethyldisiloxane]", "values": [
      {"measurement": "NOAEL", "setting": "[2]; short-term, duration: 28 days, oral, gavage, M, CD(SD), Clinical Observation: Clear material around the mouth Red material around the mouth + Body Weight Changes: Mean body weight decrease, Weight…", "result": "< 50", "unit": "mg/kg-day"}
    ]},
    {"smiles": "O=C(O)C1CCC(C(=O)O)CC1", "note": "(stereo not given) [1,4-Cyclohexanedicarboxylic acid]", "values": [
      {"measurement": "LD50", "setting": "[1]; gavage, Sprague-Dawley", "result": 2080, "unit": "mg/kg"},
      {"measurement": "NOAEL (% diet)", "setting": "[1]; short-term, diet, F, Sprague-Dawley", "result": 1},
      {"measurement": "NOAEL (% diet)", "setting": "[1]; short-term, diet, M, Sprague-Dawley", "result": 1},
      {"measurement": "NOAEL", "setting": "[1]; subchronic, duration: 90 days, gavage, F, Wistar", "result": 300, "unit": "mg/kg-day"},
      {"measurement": "NOAEL", "setting": "[1]; subchronic, duration: 90 days, gavage, M, Wistar", "result": 300, "unit": "mg/kg-day"}
    ]},
    {"smiles": "O=S(=O)([O-])c1cccc2c(S(=O)(=O)[O-])cccc12.[Na+].[Na+]", "note": "[1,5-Naphthalenedisulfonic acid, disodium salt]", "values": [
      {"measurement": "NOEL", "setting": "[2]; subchronic, oral, gavage, M, Sprague-Dawley, Clinical Observation: Soft stool Diarrhea + Necropsy: Stomach/Forestomach-Elevation of limiting ridge Cecum-Enlargement + Histopathology: …", "result": 40, "unit": "mg/kg-day"}
    ]},
    {"smiles": "N#CN=C(N)N", "note": "[Cyanoguanidine]", "values": [
      {"measurement": "NOAEL", "setting": "[2]; subchronic, duration: 44 days, oral, gavage, M, CD(SD)", "result": 1000, "unit": "mg/kg-day"}
    ]},
    {"smiles": "OC[C@@H](O)[C@@H](O[C@@H]1O[C@H](CO)[C@H](O)[C@H](O)[C@H]1O)[C@H](O)[C@@H](O)CO", "note": "[Lactitol]", "values": [
      {"measurement": "NOEL", "setting": "[2]; subchronic, oral, gavage, M/F, SLC:SD, Clinical Observation: Loose stool, Diarrhea Soiled fur, Salivation Abdominal distention + Body Weight Changes: decrease + Food Consumption: …", "result": "< 625", "unit": "mg/kg-day"}
    ]},
    {"smiles": "Cc1cc(O)c2c(c1)C(=O)c1cc(O)cc(O)c1C2=O", "note": "[Emodin]", "values": [
      {"measurement": "NOEL", "setting": "[2]; chronic, duration: 14 weeks, oral, diet, M/F, Fischer 344, Clinical Observation: Body color change Diarrhea + Body Weight Changes: decrease. >2500 + Food Consumption: decrease + Hematology: Hct …", "result": "< 24.4", "unit": "mg/kg-day"}
    ]},
    {"smiles": "O=C/C=C/c1ccccc1", "note": "[(2E)-3-Phenylprop-2-enal]", "values": [
      {"measurement": "NOEL", "setting": "[2]; chronic, duration: 14 weeks, oral, diet, F, Fischer 344, Body Weight Changes: decrease + Food Consumption: decrease + Hematology: Ret decrease, Plt decrease + Blood Chemistry: Bile acid increase, …", "result": "< 300", "unit": "mg/kg-day"},
      {"measurement": "NOEL", "setting": "[2]; chronic, duration: 14 weeks, oral, diet, M/F, Fischer 344, Body Weight Changes: decrease + Food Consumption: decrease + Hematology: Ret decrease, Plt decrease + Blood Chemistry: Bile acid increase, …", "result": "< 320", "unit": "mg/kg-day"}
    ]},
    {"smiles": "Oc1cccc(O)c1", "note": "[Resorcinol]", "values": [
      {"measurement": "NOEL", "setting": "[2]; subchronic, duration: 13 weeks, oral, gavage, M/F, Fischer 344, Deaths + Clinical Observation: Tremor + Blood Chemistry: Ch E decrease + Absolute Organ Weight: Adrenal increase + Relative Organ Weight: …", "result": "< 32", "unit": "mg/kg-day"}
    ]},
    {"smiles": "Nc1ccc([N+](=O)[O-])cc1O", "note": "[2-Amino-5-nitrophenol]", "values": [
      {"measurement": "NOEL", "setting": "[2]; subchronic, duration: 13 weeks, oral, gavage, M/F, Fischer 344, Deaths + Body Weight Changes: decrease + Absolute Organ Weight: Liver increase + Relative Organ Weight: Liver increase + Histopathology: …", "result": "< 100", "unit": "mg/kg-day"}
    ]},
    {"smiles": "CCCC=NO", "note": "[Butyraldehyde oxime]", "values": [
      {"measurement": "NOEL", "setting": "[2]; subchronic, oral, gavage, M/F, Fischer 344, Deaths + Body Weight Changes: decrease + Urinalysis: Thiocyanate (I1/4mol/24 hr) increase, Thiocyanate/creatinine ratio increase, Creatinine…", "result": "< 25", "unit": "mg/kg-day"}
    ]},
    {"smiles": "C=C1C/C(=C/C)C(=O)O[C@@H]2CCN3CC=C(COC(=O)[C@@]1(O)CO)[C@H]23", "note": "[Riddelliine]", "values": [
      {"measurement": "NOEL", "setting": "[2]; subchronic, oral, gavage, M/F, Fischer 344, Deaths + Body Weight Changes: decrease + Hematology: Ret increase Hct increase Hgb increase RBC increase Plt decrease, WBC increase Lymph …", "result": "< 0.1", "unit": "mg/kg-day"}
    ]},
    {"smiles": "C1CN2CCN1CC2", "note": "[1,4-Diazabicyclo[2.2.2]octane]", "values": [
      {"measurement": "NOAEL", "setting": "[2]; short-term, duration: 29 days, oral, gavage, M, Sprague-Dawley, Body Weight Changes: Weight gain decrease + Food Consumption: decrease + Histopathology: Kidney: Inflammation, chronic Kidney: Proliferation", "result": 100, "unit": "mg/kg-day"}
    ]},
    {"smiles": "CCCCn1c(O)c(C#N)c(C)c(N=Nc2ccc([N+](=O)[O-])cc2Cl)c1=O", "values": [
      {"measurement": "NOEL", "setting": "[2]; short-term, duration: 28 days, oral, gavage, M/F, Blood Chemistry: GOT increase, T-bil increase + Organ Weight: Liver increase", "result": 250, "unit": "mg/kg-day"}
    ]},
    {"smiles": "COC1COC(OC2COC(OC3COC(OC4COC(OC)C(OS(=O)(=O)[O-])C4OS(=O)(=O)[O-])C(OC4OC(C(=O)[O-])C(OC)C(OS(=O)(=O)[O-])C4OS(=O)(=O)[O-])C3OS(=O)(=O)[O-])C(OS(=O)(=O)[O-])C2OS(=O)(=O)[O-])C(OS(=O)(=O)[O-])C1OS(=O)(=O)[O-].[Na+].[Na+].[Na+].[Na+].[Na+].[Na+].[Na+].[Na+].[Na+].[Na+]", "note": "(stereo not given) [Elmiron]", "values": [
      {"measurement": "NOEL", "setting": "[2]; repeat dose other, oral, gavage, M/F, Fischer 344, Hematology: Hct decrease, Hgb decrease, RBC decrease, Plt increase, WBC increase + Absolute Organ Weight: Liver increase, Spleen increase, …", "result": "< 63", "unit": "mg/kg-day"}
    ]},
    {"smiles": "NCCCC1OCC2(CO1)COC(CCCN)OC2", "note": "(stereo not given) [2,4,8,10-Tetraoxaspiro[5.5]undecane-3,9-dipropanamine]", "values": [
      {"measurement": "NOEL", "setting": "[2]; subchronic, oral, gavage, M, Sprague-Dawley, Clinical Observation: Locomotor activity decrease, Respiratory irregularity Prone position Salivation + Body Weight Changes: decrease1000…", "result": "< 40", "unit": "mg/kg-day"}
    ]},
    {"smiles": "CC(C)CCCCCCOC(=O)c1ccc(C(=O)OCCCCCCC(C)C)c(C(=O)OCCCCCCC(C)C)c1", "note": "[Triisononyl trimellitate]", "values": [
      {"measurement": "LD50", "setting": "[1]; Sprague-Dawley", "result": "> 10000", "unit": "mg/kg"}
    ]},
    {"smiles": "Nc1nn[nH]n1", "note": "[Tetrazol-5-ylamine]", "values": [
      {"measurement": "NOEL", "setting": "[2]; subchronic, oral, gavage, M, Sprague-Dawley, Blood Chemistry: BUN increase", "result": 200, "unit": "mg/kg-day"}
    ]},
    {"smiles": "CC(O)CC(C)(C)O", "note": "(stereo not given) [2-Methyl-2,4-pentanediol]", "values": [
      {"measurement": "NOAEL", "setting": "[2]; subchronic, duration: 90 days, oral, gavage, M/F, CD(SD), Deaths: None (there were dead animals by miss-dosing) + Water Consumption: increase + Urinalysis: pH decrease, S.G. increase + Hematology: …", "result": 450, "unit": "mg/kg-day"}
    ]},
    {"smiles": "C=C(C)C(=O)OCC[N+](C)(C)C.[Cl-]", "note": "[(2-(Methacryloyloxy)ethyl)trimethylammonium chloride]", "values": [
      {"measurement": "LD50", "setting": "[1]; gavage, Sprague-Dawley", "result": "> 2000", "unit": "mg/kg"},
      {"measurement": "NOAEL", "setting": "[1]; short-term, duration: 28 days, diet, F, Crj:CD", "result": "> 1000", "unit": "mg/kg-day"},
      {"measurement": "NOAEL", "setting": "[1]; short-term, duration: 28 days, diet, M, Crj:CD", "result": "> 1000", "unit": "mg/kg-day"}
    ]},
    {"smiles": "Nc1ccc([N+](=O)[O-])cc1Cl", "note": "[2-Chloro-4-nitroaniline]", "values": [
      {"measurement": "NOEL", "setting": "[2]; subchronic, oral, gavage, Sprague-Dawley", "result": 100, "unit": "mg/kg-day"}
    ]}
  ]
}
